# ChEMBL document CHEMBL1127277, “Synthesis and in vitro cytotoxicity of 1,3-dioxolane-2-(2-ethanamine)-2-methanamine platinum(II) complexes” (Bioorg Med Chem Lett, 1994)
# pIC50: −log10 of the molar value.
# Tests used:
# L1210 [1] = assay: In vitro cytotoxicity against cisplatin sensitive L1210 murine leukemia cell line; format: functional, cell-based, Mus musculus
# PC-9 = assay: Cytotoxicity against human non-small cell lung cancer cell line PC-9 in MTT assay; format: functional, cell-based
# SNU-16 = assay: Cytotoxicity against human stomach cancer cell line SNU-16 in MTT assay; format: functional, cell-based
# PC-14 = assay: Cytotoxicity against human non-small cell lung cancer cell line PC-14 in MTT assay; format: functional, cell-based
# SNU1 = assay: Cytotoxicity against human stomach cancer cell line SNU-1 in MTT assay; format: functional, cell-based
# L1210 [2] = assay: In vitro cytotoxicity against cisplatin resistance L1210 murine leukemia cell line; format: functional, cell-based, Mus musculus
# SNU-5 = assay: Cytotoxicity against human stomach cancer cell line SNU-5 in MTT assay; format: functional, cell-based
# L1210 [3] = assay: Ratio of the cytotoxicity against cisplatin resistance L1210 to parent (sensitive) cell lines; format: functional, cell-based
Sequence,pIC50 (L1210 [1]),pIC50 (PC-9),pIC50 (SNU-16),pIC50 (PC-14),pIC50 (SNU1),pIC50 (L1210 [2]),pIC50 (SNU-5),Ratio (L1210 [3])
CARBOPLATIN [listing 1 of 2 here],5.74,4.66,4.86,4.81,4.70,4.35,5.04,–
CARBOPLATIN [listing 2 of 2 here],–,–,–,–,–,–,–,24.1
CISPLATIN [listing 1 of 2 here],7.00,6.00,5.30,5.88,5.57,5.49,6.00,–
CISPLATIN [listing 2 of 2 here],–,–,–,–,–,–,–,3.24
